Laboratory results as given in US20030153575A1, “Tetracyclic diketopiperazine compounds as pdev inhibitors” (priority 2002, published 2003).

Tests used:
human recombinant PDE5 = human recombinant PDE5 (Homo sapiens, UniProt O76074); assay: Inhibitory effect on cGMP-PDE (PDE5 IC50); format: biochemical; conditions: in vitro, human recombinant PDE5, 0.15 μM 8-[H3]-cGMP, 30 min incubation
Experimental: The compounds of structural formula (I) were tested for an ability to inhibit PDE5. The ability of a compound to inhibit PDE5 activity is related to the IC50 value for the compound, i.e., the concentration of inhibitor required for 50% inhibition of enzyme activity. The IC50 value for compounds of structural formula (I) were determined using recombinant human PDE5.
cGMP-PDE activity of compounds of the present invention was measured using a one-step assay adapted from Wells et al., Biochim. Biophys. Acta, […], 430 (1975). The reaction medium contained 50 mM Tris-HCl, pH 7.5, 5 mM magnesium acetate, 250 μg/ml 5′-Nucleotidase, 1 mM EGTA, and 0.15 μM 8-[H^3]-cGMP. Unless otherwise indicated, the enzyme used was a human recombinant PDE5 (ICOS Corp., Bothell, Wash.).
Compounds of the invention were dissolved in DMSO finally present at 2% in the assay.

Q: For CN1CC(=O)N2[C@H](c3ccc(O)c(O)c3)c3[nH]c4ccccc4c3C[C@@H]2C1=O [Example 1, (6R,12aR)-6-(3,4-Dihydroxyphenyl)-2-methyl-2,3,6,7,12,12a-hexahydropyrazino[1′,2′:1,6]-pyrido[3,4-b]indole-1,4-dione], which IC50 (human recombinant PDE5) is on record?
A: 0.045 µM

Q: And the melting point?
A: 250.5 to 256.6 °C

Q: Which IC50 (human recombinant PDE5) does the source give for COc1cc([C@@H]2c3[nH]c4ccccc4c3C[C@@H]3C(=O)N(C)CC(=O)N23)ccc1O [Example 2, (6R,12aR)-6-(4-Hydroxy-3-methoxyphenyl)-2-methyl-2,3,6,7,12,12a-hexahydropyrazino[1′,2′:1,6]-pyrido[3,4-b]indole-1,4-dione] here?
A: 0.23 µM

Q: And the melting point?
A: 288.2 to 292.2 °C
